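In this assay, cells in 96-well plates receive the compound at five concentrations for 48 hours. Endpoints are linearly interpolated between the surrounding concentrations. GI50 marks 50% less growth. TGI marks complete inhibition of growth.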
Assays:
Experiment in all cases: NCI tumour cell line growth inhibition, 48 h
[1] = system: 786-0 renal
[2] = system: A498 renal
[3] = system: BT-549 breast
[4] = system: CAKI-1 renal
[5] = system: DU-145 prostate
[6] = system: HCC-2998 colon
[7] = system: HCT-116 colon
[8] = system: HCT-15 colon
[9] = system: HOP-62 NSCLC
[10] = system: HOP-92 NSCLC
[11] = system: HS 578T breast
[12] = system: K-562 leukemia
[13] = system: MDA-MB-231 breast
[14] = system: MDA-MB-435
[15] = system: NCI-H226 lung
[16] = system: NCI/ADR-RES ovarian
[17] = system: OVCAR-4 ovarian
[18] = system: OVCAR-5 ovarian
[19] = system: OVCAR-8 ovarian
[20] = system: SK-OV-3 ovarian
[21] = system: SNB-19 CNS
[22] = system: SNB-75 CNS
[23] = system: T-47D breast
[24] = system: TK-10 renal
[25] = system: U251 CNS
[26] = system: A549 NSCLC
[27] = system: ACHN renal
[28] = system: CCRF-CEM leukemia
[29] = system: EKVX NSCLC
[30] = system: HL-60(TB) leukemia
[31] = system: HT29 colon
[32] = system: IGROV1 ovarian
[33] = system: KM12 colon
[34] = system: LOX IMVI melanoma
[35] = system: M14 melanoma
[36] = system: MALME-3M melanoma
[37] = system: MCF7 breast
[38] = system: NCI-H23 lung
[39] = system: NCI-H460 lung
[40] = system: NCI-H522 lung
[41] = system: OVCAR-3 ovarian
[42] = system: PC-3 prostate
[43] = system: RPMI-8226 leukemia
[44] = system: RXF 393 renal
[45] = system: SF-268 CNS
[46] = system: SF-295 CNS
[47] = system: SF-539 CNS
[48] = system: SK-MEL-2 melanoma
[49] = system: SK-MEL-28 melanoma
[50] = system: SK-MEL-5 melanoma
[51] = system: SN12C renal
[52] = system: SR leukemia
[53] = system: SW-620 colon
[54] = system: UACC-257 melanoma
[55] = system: UACC-62 melanoma
[56] = system: UO-31 renal

## O=C(Nc1cccc(Cl)c1)Nc1cc2ncncc2cc1OCc1cccc(F)c1
[1]
  GI50: 3 µM
  TGI: > 100 µM
[2]
  GI50: 1.75 µM
  TGI: 5.96 µM
[3]
  GI50: 2.34 µM
  TGI: 7.41 µM
[4]
  GI50: 3.03 µM
  TGI: > 100 µM
[5]
  GI50: 3.38 µM
  TGI: > 100 µM
[6]
  GI50: 3.9 µM
  TGI: > 100 µM
[7]
  GI50: 2.61 µM
  TGI: > 100 µM
[8]
  GI50: 2.72 µM
  TGI: > 100 µM
[9]
  GI50: 2.1 µM
  TGI: 5.6 µM
[10]
  GI50: 1.88 µM
  TGI: 6.88 µM
[11]
  GI50: 2.62 µM
  TGI: 7.02 µM
[12]
  GI50: 2.52 µM
  TGI: > 100 µM
[13]
  GI50: 2.54 µM
  TGI: 7.8 µM
[14]
  GI50: 1.48 µM
  TGI: 4.34 µM
[15]
  GI50: 2.91 µM
  TGI: 9.19 µM
[16]
  GI50: 2.97 µM
  TGI: 7.71 µM
[17]
  GI50: 2.56 µM
  TGI: 7.35 µM
[18]
  GI50: 2.72 µM
  TGI: > 100 µM
[19]
  GI50: 2.76 µM
  TGI: 7.98 µM
[20]
  GI50: 2.45 µM
  TGI: 6.13 µM
[21]
  GI50: 2.91 µM
  TGI: 74.2 µM
[22]
  GI50: 1.81 µM
  TGI: 3.98 µM
[23]
  GI50: 1.75 µM
  TGI: 4.37 µM
[24]
  GI50: 2.63 µM
  TGI: 7.98 µM
[25]
  GI50: 3.28 µM
  TGI: > 100 µM

## CCOc1ccc(NC(=O)/C(=N\N)C(C(=O)OC)c2nc3ccc(Cl)cc3[nH]c2=O)cc1 (stereo not drawn)
[1]
  TGI: > 100 µM
[2]
  TGI: > 100 µM
[26]
  TGI: > 100 µM
[27]
  TGI: > 100 µM
[3]
  TGI: > 100 µM
[4]
  TGI: > 100 µM
[28]
  TGI: > 100 µM
[29]
  TGI: > 100 µM
[6]
  TGI: > 100 µM
[7]
  TGI: > 100 µM
[8]
  TGI: > 100 µM
[30]
  TGI: > 100 µM
[9]
  TGI: > 100 µM
[10]
  TGI: > 100 µM
[11]
  TGI: > 100 µM
[31]
  TGI: > 100 µM
[32]
  TGI: > 100 µM
[33]
  TGI: > 100 µM
[34]
  TGI: > 100 µM
[35]
  TGI: > 100 µM
[36]
  TGI: > 100 µM
[37]
  TGI: > 100 µM
[13]
  TGI: > 100 µM
[14]
  TGI: > 100 µM
[15]
  TGI: > 100 µM
[38]
  TGI: > 100 µM
[39]
  TGI: > 100 µM
[40]
  TGI: > 100 µM
[16]
  TGI: > 100 µM
[41]
  TGI: > 100 µM
[17]
  TGI: > 100 µM
[18]
  TGI: > 100 µM
[19]
  TGI: > 100 µM
[42]
  TGI: > 100 µM
[43]
  TGI: > 100 µM
[44]
  TGI: > 100 µM
[45]
  TGI: > 100 µM
[46]
  TGI: > 100 µM
[47]
  TGI: > 100 µM
[48]
  TGI: > 100 µM
[49]
  TGI: > 100 µM
[50]
  TGI: > 100 µM
[20]
  TGI: > 100 µM
[51]
  TGI: > 100 µM
[22]
  TGI: > 100 µM
[52]
  TGI: > 100 µM
[53]
  TGI: > 100 µM
[23]
  TGI: > 100 µM
[24]
  TGI: > 100 µM
[25]
  TGI: > 100 µM
[54]
  TGI: > 100 µM
[55]
  TGI: > 100 µM
[56]
  TGI: > 100 µM

— PubChem BioAssay (NCI)
